Experimental data taken from patent US20020091086A1, “Peptides that block viral infectivity and methods of use thereof” (priority 1999, published 2002).
Peptide text beside a SMILES is read from it.

Columns and labels:
BSA = molecular target: T1, BSA (Bos taurus, UniProt P02769); assay: dialysis-based binding assay with 14C-GPG-NH2, BSA; details: dialysis 2 days at 4° C. against 27.5 μM 14C-GPG-NH2; buffer 1.816
T1 construct: purchased Sigma
Protocol: A dialysis-based binding assay was conducted using a dialysis membrane with a pore size of less than 10 kD. (Slide-A-Lyzer, Pierce). Fifty microliters of a 10 μM stock of the recombinant proteins p24 and gp120 (gifts from the AIDS program, NCIB) and BSA (Sigma) were introduced into separate dialysis membranes and the proteins were dialyzed at 4° C. for 2 days against a 500 ml solution composed of 150 mM NaCl and 50 mM Tris-HCl, pH 7.4 buffer and 27.5 μM of ^14C-GPG-NH2 (Amersham Ltd. UK). Subsequently, ten or five microliter aliquots of the dialyzed p24, gp120, and BSA were removed and mixed with 3 ml of ReadySafe (Beckman) in a scintillation vial. The C^14 was then detected by scintillation counting.

[1] = tested on: normal human lymphomonocytic cells (PBMC); assay: viability of cultured monocytes and lymphocytes; type: cell-based; details: as high as 2 mM; exposure as long as 4 days
Protocol: Next, the toxicity to normal human lymphomonocytic cells (PBMC) was examined. […] The effect of GPG-NH2 on in vitro proliferative response of human mononuclear cells was also tested.

[2] = four week oral toxicology study in rats; type: in vivo; details: orally up to 1 g per kilo bodyweight per day, twenty eight days
Protocol: In this example, the results from several in vivo toxicology studies on small peptides administered in large doses to rodents are presented. In a first experiment, a large single dose of small peptide was delivered to mice and the toxic effects were analyzed. […] In a second experiment, several doses of varying amounts of a small peptide were delivered to mice for almost three weeks. Groups of mice (five mice in each group) were given intraperitoneal injections of GPG-NH2 (0.01, 0.1 and 1 g per kilo bodyweight and day, respectively) starting at an age of 6 days. Daily injections were continued for 18 days. […] In a similar experiment, a four week toxicology study of GPG-NH2 was performed by Scantox A/S in Denmark. GPG-NH2 was given orally to rats at doses up to 1 g per kilo bodyweight per day for twenty eight days.

[3] = radioactivity associated with rat plasma proteins, SDS/PAGE; type: in vivo, rats; details: 60 minutes after feeding
Protocol: The proteins from whole plasma were also analyzed by column chromatography and fractionated and crude protein were separated by sodium dodecyl sulfate polyacrylamide gel (10%) electrophoresis (SDS/PAGE). Rat plasma samples were partially purified with size exclusion ([…], Phamacia) chromatography (0.4×6 cm), in a buffer of 10 mM Tris-HCl pH 8.3 and 50 mM KCl. Eluate was then separated by anionic exchange chromatography by using an increasing stepwise gradient of NaCl in a buffer of 10 mM Tris-HCl pH8.3 (Sepharose CL-6B DEAE, 0.4×6 cm). The eluate was monitored and pooled according to the radioactivity (Ready Safe, Beckman; LKB 1218, Sweden). The protein fractions with strong signal were separated on a 10% SDS-PAGE and were subsequently blotted onto PVDF (polyvinylidene difluoride, BioRad) membrane before being subjected to Edman N-terminal amino acid sequencing (Applied Biosystems Procise Sequencer, USA).
The proteins marked B1-B4 were sequenced and determined to be alpha-1 antitrypsin (Bi), pentaxin (B-2), C-reactive protein (B-3), and B-4 could not be identified. These proteins are all synthesized in the liver. One interpretation is that hydrolyzed GPG-NH2 was reutilized in the liver protein synthesis. […]

SMILES: NCC(=O)N1CCC[C@H]1C(=O)NCC(N)=O [GPG-NH2, glycyl-prolyl-glycine amide] (H-Gly-Pro-Gly-NH2)
- radioactive GPG-NH2 associated with BSA (BSA): 1.674 μCi/ml
- viability of cultured monocytes and lymphocytes [1]: did not appreciably affect the viability
- signs of toxicity [2]: No signs of toxicity
- radioactivity covalently associated with plasma proteins [3]: little radioactivity was observed to be covalently associated with proteins
